Assays:
[1] = solubility in propionic acid; conditions: using cyclododecene in the present process
Method: A reactor system consisting of a jacketed 1 inch, 10 tray glass Oldershaw column, 250 cc bottom receiver, feed pump, and recycle pump were assembled. The initial feed material consisted of 102 g. of propionic acid solvent and 18 g. of cyclododecene. 120 g. of the initial feed material were charged into the reactor system. The temperature of the jacket on the Oldershaw column was adjusted to 20° C. and a recycle flow of 50 cc/min. was established using the recycle pump. An ClearWater Tech modelM-1500 ozone generator was attached to the system. A carrier gas consisting of 20% oxygen in carbon dioxide was fed to the reactor at 2000 cc/min. The gas exit the ozone generator was measured to contain 0.80% ozone. […] At that point, the additional 18 g. of pure CDDM solution was fed to the top of the column at a rate of 00.15 cc/min. The balance between the ozone and the cyclododecene fed allowed an excess of ozone in the reactor off gas at all times.

[2] = disclosed in Maggiolo patent; cited from earlier work

Compound | ozonide solubility in propionic acid [1] | solubility in isobutyric acid [2] [%]
C1CCCCCC2OOC(CCCC1)O2 [ozonide, cyclododecene ozonide] | about 27.5% | 
C1=CCCCCCC1 [cyclooctene] |  | 20

From patent publication US6423853B1, “Continuous ozonolysis of cycloalkenes into ozonides” (E. I. du Pont de Nemours & Comp., priority 2001, dated 2002)
